In US6294568A, “5-arylpyrrole derivatives” (priority 1997, dated 2001):

Legend:
carrageenan footedema = experiment: Carrageenan Footedema Suppression Test; format: in vivo, SD rats; settings: oral; paw volume three hours after carrageenan administration
Experimental: The carrageenin footedema suppression test was conducted according to the method of Winter et al. (J. Pharm. Exp. Ther., Vol.141, 369 (1963)). The test samples suspended in Tween 80 were administered orally to SD rats (6 rats per 1 group) in an amount of 1 ml per 100 g of the body weight, while only the solvent was administered in the same manner as above as a control. One hour after the administration, 1% carrageenan physiological saline was injected subcutaneously to the rats in the plantar area of the right hind paw. Three hours after the carrageenan administration, the paw volumes were measured and the edematization rate (%) was calculated with Formula 1 and then edematization suppression rate (%) was calculated with Formula 2.
Edematization rate (%)=((paw volume after carrageenan injection- paw volume before carrageenan injection)/(paw volume before carrageenan injection)×100 Formula: 1
Edematization suppression rate (%)=((edematization rate of control-
edematization rate of test samples)/edematization rate of […]

Human COX-1 = target: T1, Human COX-1 (Homo sapiens, UniProt P23219); experiment: Human COX-1 Inhibitory Activity Test (TXB2 in blood); format: cell-based; settings: IC50 from Hill Plot
T1 construct: endogenous in cells; host or cells: whole blood of a healthy human donor (own knowledge: TXB2 of clotting blood comes from platelet COX-1)
T1 sequence (P23219 24-599): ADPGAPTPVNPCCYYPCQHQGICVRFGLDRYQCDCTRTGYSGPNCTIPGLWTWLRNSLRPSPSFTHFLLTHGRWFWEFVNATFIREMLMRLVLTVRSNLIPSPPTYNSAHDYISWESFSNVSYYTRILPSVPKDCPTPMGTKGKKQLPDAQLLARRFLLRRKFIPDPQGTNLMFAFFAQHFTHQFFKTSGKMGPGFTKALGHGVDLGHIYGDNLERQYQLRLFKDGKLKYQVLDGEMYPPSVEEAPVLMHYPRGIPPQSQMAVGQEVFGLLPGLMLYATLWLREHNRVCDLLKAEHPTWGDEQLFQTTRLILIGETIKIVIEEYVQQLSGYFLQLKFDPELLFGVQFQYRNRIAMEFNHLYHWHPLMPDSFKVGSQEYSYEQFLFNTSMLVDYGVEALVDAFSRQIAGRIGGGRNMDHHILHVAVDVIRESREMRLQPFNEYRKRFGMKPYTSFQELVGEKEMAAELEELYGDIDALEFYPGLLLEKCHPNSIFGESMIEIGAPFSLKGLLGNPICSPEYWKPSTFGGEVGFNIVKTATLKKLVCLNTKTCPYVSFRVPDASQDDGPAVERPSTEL
Experimental: COX-1 and COX-2 activities were measured according to the method of Patrignani et al. (J. Pharm. Exp. Ther. Vol. 271, 1705 (1994)).
(1) COX-1 activity was measured in the following procedure. […] The serum obtained by 10 minutes of centrifugation at 2000 rpm at 4° C. was stored at -40° C. until the measurement of the amount of thromboxane B2 (TXB2). The test samples, which had been dissolved in ethanol and diluted to the specified concentrations, were previously dispensed into the glass test tubes, and the solvent was evaporated to dryness by Centrifugal Vaporizer (CVE-200D, manufactured by Tokyo Rika Mfg. Co., Ltd.) so that the test samples were added to the plasma.
(3) The measurement for the TXB2 content was conducted in the following procedure. In a part of a 96 well plate coated with anti-rabbit IgG antibody, 2 wells were allotted respectively to blank well, Non-specific Binding (NSB) well, Maximum Binding (B0) well, standard wells at 7 concentrations of TXB2 (1000 pg/ml) in doubling dilution ranging from 1000-15.6 pg/ml. The rest of the wells were used for the measurement of the samples. EIA buffer was added to the NSB wells (100 μl ) and B0 wells (50 μl), respectively. 50 μl of each of the standard dilution was added in an order from thinner to thicker concentrations. Each of the samples was added to the rest of the wells in an amount of 50 μl. Then, 50 μl of TXB2 tracer was added to each of the wells except for the blank wells. Further, 50 μl of TXB2 antibody was added to each of the wells except for the NSB wells and blank wells, then the well plate was covered with a plastic film and the reaction continued for 18 hours at room temperature. When the reaction was terminated, the wells were washed 5 times with a wash buffer. 200 μl of Elman's reagent was added to each of the wells and then the well plate was covered with a plastic film and developed for 60 minutes in a dark place. The absorbance at 405 nm was measured by an Immuno Reader (NJ-2000, manufactured by Nippon Intermed Co., Ltd.). From the measurement result, %B/B0 was calculated and, applying it to the approximation formula of Hill Plot, the concentration of the samples was determined to be 2,000 times concentration. […]

Human COX-2 = target: T2, Human COX-2 (Homo sapiens, UniProt P35354); settings: ratio of IC50 COX-1 to COX-2; cited from earlier work
T2 construct: endogenous in cells; host or cells: heparinised whole blood of a healthy human donor pretreated with aspirin, stimulated with LPS (own knowledge: COX-2 is induced in monocytes)
T2 sequence (P35354 18-604): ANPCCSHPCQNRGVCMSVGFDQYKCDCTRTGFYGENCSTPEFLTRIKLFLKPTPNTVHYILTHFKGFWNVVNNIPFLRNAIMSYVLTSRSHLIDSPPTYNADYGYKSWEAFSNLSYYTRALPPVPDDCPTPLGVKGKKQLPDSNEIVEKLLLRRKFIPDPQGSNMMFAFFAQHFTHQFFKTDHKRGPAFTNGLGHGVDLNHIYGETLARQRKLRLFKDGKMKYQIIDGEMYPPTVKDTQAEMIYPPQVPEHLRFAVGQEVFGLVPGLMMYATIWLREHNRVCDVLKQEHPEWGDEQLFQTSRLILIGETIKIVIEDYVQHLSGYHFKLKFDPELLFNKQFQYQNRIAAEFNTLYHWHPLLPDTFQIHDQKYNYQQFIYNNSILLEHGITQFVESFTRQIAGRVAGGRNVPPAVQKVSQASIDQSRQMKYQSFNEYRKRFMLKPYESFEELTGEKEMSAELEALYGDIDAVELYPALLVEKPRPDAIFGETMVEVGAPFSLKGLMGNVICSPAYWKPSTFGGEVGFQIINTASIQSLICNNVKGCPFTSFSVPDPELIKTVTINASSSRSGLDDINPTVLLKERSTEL

IC50 (Human COX-1): 373 µM
Structure (SMILES): CS(=O)(=O)c1ccc(-c2[nH]ccc2-c2ccc(F)cc2)cc1 [Control compound (b), 4-(4-fluorophenyl)-5-(4-methylsulfonylphenyl)-1H-pyrrole, reference compound]
Edematization Suppression rate (carrageenan footedema): -1.8%
COX-1/COX-2 (value specified in the literature) (Human COX-2): 29.4
